The nature of experiment [1]: Inhibition of PAF-induced rabbit platelet aggregation.
A short description of experiment [2]: Inhibition of [3H]PAF binding to rabbit platelet membrane.

33 compounds from BindingDB's records for doi:10.1021/jm00060a006 (Paris Diderot University, 1993) can be followed below.

As usually defined, the IC50 is the concentration at which inhibition is half-maximal. High values mean weaker potency, low ones greater potency. For orientation: EC50 means the midpoint of the concentration-response curve.

As for `CCCCN(CCCC)C(=O)OCC1CN(C(=O)c2cc(OC)c(OC)c(OC)c2)CCN1C(=O)c1cc(OC)c(OC)c(OC)c1` (stereo unspecified) [Dibutyl-carbamic acid 1,4-bis-(3,4,5-trimethoxy-benzoyl)-piperazin-2-ylmethyl ester], in experiment [1], the IC50 was found to be 1250 nM.
The same measure, in the same setting: with `COc1cc(C(=O)N2CCN(C(=O)c3cc(OC)c(OC)c(OC)c3)C(COC(=O)NC(C)(C)C)C2)cc(OC)c1OC` (stereo unspecified) [tert-Butyl-carbamic acid 1,4-bis-(3,4,5-trimethoxy-benzoyl)-piperazin-2-ylmethyl ester] the figure was 130 nM; with `CCCCCCCC(=O)OCC1CN(C(=O)c2cc(OC)c(OC)c(OC)c2)CCN1C(=O)c1cc(OC)c(OC)c(OC)c1` (stereo unspecified) [Octanoic acid 1,4-bis-(3,4,5-trimethoxy-benzoyl)-piperazin-2-ylmethyl ester], 310 nM; with `COc1cc(C(=O)N2CCN(C(=O)c3cc(OC)c(OC)c(OC)c3)C(COC(=O)COc3ccc(F)cc3)C2)cc(OC)c1OC` (stereo unspecified) [(4-Fluoro-phenoxy)-acetic acid 1,4-bis-(3,4,5-trimethoxy-benzoyl)-piperazin-2-ylmethyl ester], 10300 nM.
In turn, `CCCCC(CC)CNC(=O)OCC1CN(C(=O)c2cc(OC)c(OC)c(OC)c2)CCN1C(=O)c1cc(OC)c(OC)c(OC)c1` (stereo unspecified) [(2-Ethyl-hexyl)-carbamic acid 1,4-bis-(3,4,5-trimethoxy-benzoyl)-piperazin-2-ylmethyl ester] yielded an IC50 in experiment [1] of 3900 nM.
In turn, `CCCCCCCCCCCCCCCCCC(=O)OCC1CN(C(=O)c2cc(OC)c(OC)c(OC)c2)CCN1C(=O)c1cc(OC)c(OC)c(OC)c1` (stereo unspecified) [Octadecanoic acid 1,4-bis-(3,4,5-trimethoxy-benzoyl)-piperazin-2-ylmethyl ester] gave an IC50 in experiment [1] of 45000 nM.
For the compound `COc1cc(C(=O)N2CCN(C(=O)c3cc(OC)c(OC)c(OC)c3)C(COC(=O)C(C)(C)C)C2)cc(OC)c1OC` (stereo unspecified) [2,2-Dimethyl-propionic acid 1,4-bis-(3,4,5-trimethoxy-benzoyl)-piperazin-2-ylmethyl ester], the IC50 in experiment [1] was determined as 100 nM. For the same compound, the half-maximal effective concentration (EC50) in experiment [2] is 300 nM.
`CCCCCC(=O)OCC1CN(C(=O)c2cc(OC)c(OC)c(OC)c2)CCN1C(=O)c1cc(OC)c(OC)c(OC)c1` (stereo unspecified) [Hexanoic acid 1,4-bis-(3,4,5-trimethoxy-benzoyl)-piperazin-2-ylmethyl ester] had an IC50 in experiment [1] of 290 nM.
`CCC(C)(C)NC(=O)OCC1CN(C(=O)c2cc(OC)c(OC)c(OC)c2)CCN1C(=O)c1cc(OC)c(OC)c(OC)c1` (stereo unspecified) [(1,1-Dimethyl-propyl)-carbamic acid 1,4-bis-(3,4,5-trimethoxy-benzoyl)-piperazin-2-ylmethyl ester] had an IC50 in experiment [1] of 320 nM. The IC50 values of the last two compounds are within 1.5-fold of each other.
Same read-out and setting: with `CCC(C)CNC(=O)OCC1CN(C(=O)c2cc(OC)c(OC)c(OC)c2)CCN1C(=O)c1cc(OC)c(OC)c(OC)c1` (stereo unspecified) [(2-Methyl-butyl)-carbamic acid 1,4-bis-(3,4,5-trimethoxy-benzoyl)-piperazin-2-ylmethyl ester] the figure was 470 nM.
Still for that read-out and setting: with `CCC(CC)C(=O)OCC1CN(Cc2cc(OC)c(OC)c(OC)c2)CCN1Cc1cc(OC)c(OC)c(OC)c1` (stereo unspecified) [2-Ethyl-butyric acid 1,4-bis-(3,4,5-trimethoxy-benzyl)-piperazin-2-ylmethyl ester] the figure was 2700 nM.
In turn, `CCCN(CCC)C(=O)OCC1CN(C(=O)c2cc(OC)c(OC)c(OC)c2)CCN1C(=O)c1cc(OC)c(OC)c(OC)c1` (stereo unspecified) [(1,4-bis(3,4,5-trimethoxybenzoyl)piperazin-2-yl)methyl dipropylcarbamate] showed an IC50 in experiment [1] of 380 nM. In experiment [2], this compound returned an EC50 of 680 nM.
As for `COc1cc(C(=O)N2CCN(C(=O)c3cc(OC)c(OC)c(OC)c3)C(COC(=O)NC(C)C(C)(C)C)C2)cc(OC)c1OC` (stereo unspecified) [(1,2,2-Trimethyl-propyl)-carbamic acid 1,4-bis-(3,4,5-trimethoxy-benzoyl)-piperazin-2-ylmethyl ester], half-maximal inhibition in experiment [1] (IC50) was put at 170 nM.
As to `COc1cc(C(=O)N2CCN(C(=O)c3cc(OC)c(OC)c(OC)c3)CC2)cc(OC)c1OC`, in experiment [1], the IC50 was found to be 1780 nM.
Same read-out and setting: the figure for `CCCC(=O)OCC1CN(C(=O)c2cc(OC)c(OC)c(OC)c2)CCN1C(=O)c1cc(OC)c(OC)c(OC)c1` (stereo unspecified) [Butyric acid 1,4-bis-(3,4,5-trimethoxy-benzoyl)-piperazin-2-ylmethyl ester] is 420 nM.
Consider `COc1cc(C(=O)N2CCN(C(=O)c3cc(OC)c(OC)c(OC)c3)C(COC(=O)c3ccccc3Cl)C2)cc(OC)c1OC` (stereo unspecified) [2-Chloro-benzoic acid 1,4-bis-(3,4,5-trimethoxy-benzoyl)-piperazin-2-ylmethyl ester], for which the IC50 in experiment [1] was 170 nM. This compound gave an EC50 in experiment [2] of 450 nM.
As for `CCCCCCCCNC(=O)OCC1CN(C(=O)c2cc(OC)c(OC)c(OC)c2)CCN1C(=O)c1cc(OC)c(OC)c(OC)c1` (stereo unspecified) [Octyl-carbamic acid 1,4-bis-(3,4,5-trimethoxy-benzoyl)-piperazin-2-ylmethyl ester], it took 370 nM to reach half-maximal inhibition in experiment [1] (IC50). This counts as sub-micromolar.
In turn, `COc1cc(C(=O)N2CCN(C(=O)c3cc(OC)c(OC)c(OC)c3)C(COC(=O)NC(C)CC(C)C)C2)cc(OC)c1OC` (stereo unspecified) [(1,3-Dimethyl-butyl)-carbamic acid 1,4-bis-(3,4,5-trimethoxy-benzoyl)-piperazin-2-ylmethyl ester] showed an IC50 in experiment [1] of 280 nM. Also, the EC50 in experiment [2] was 180 nM.
Regarding `COc1cc(C(=O)N2CCN(C(=O)c3cc(OC)c(OC)c(OC)c3)C(COC(=O)C3CCCCC3)C2)cc(OC)c1OC` (stereo unspecified) [Cyclohexanecarboxylic acid 1,4-bis-(3,4,5-trimethoxy-benzoyl)-piperazin-2-ylmethyl ester], half-maximal inhibition in experiment [1] (IC50) was put at 290 nM.
On the same count and under the same terms, with `CCCCCCCCCC(=O)OCC1CN(C(=O)c2cc(OC)c(OC)c(OC)c2)CCN1C(=O)c1cc(OC)c(OC)c(OC)c1` (stereo unspecified) [Decanoic acid 1,4-bis-(3,4,5-trimethoxy-benzoyl)-piperazin-2-ylmethyl ester] the figure was 2820 nM.
In the case of `CCCCNC(=O)OCC1CN(C(=O)c2cc(OC)c(OC)c(OC)c2)CCN1C(=O)c1cc(OC)c(OC)c(OC)c1` (stereo unspecified) [Butyl-carbamic acid 1,4-bis-(3,4,5-trimethoxy-benzoyl)-piperazin-2-ylmethyl ester], it took 240 nM to reach half-maximal inhibition in experiment [1] (IC50). Besides, the midpoint of the response in experiment [2], the EC50, lay at 700 nM.
On the same counts, the results for `C[C@@H]1C(=O)O[C@H]2[C@H](O)[C@@]34[C@H]5C[C@@H](C(C)(C)C)[C@]36[C@@H](OC(=O)[C@@H]6O)O[C@@]4(C(=O)O5)[C@@]12O` are 740 nM and 180 nM.
As to `COc1cc(NC(=O)OCC2CN(C(=O)c3cc(OC)c(OC)c(OC)c3)CCN2C(=O)c2cc(OC)c(OC)c(OC)c2)cc(OC)c1OC` (stereo unspecified) [(3,4,5-Trimethoxy-phenyl)-carbamic acid 1,4-bis-(3,4,5-trimethoxy-benzoyl)-piperazin-2-ylmethyl ester], inhibition in experiment [1] was half-maximal at 13800 nM (IC50).
Still for that read-out and setting: with `CCCC(C)NC(=O)OCC1CN(C(=O)c2cc(OC)c(OC)c(OC)c2)CCN1C(=O)c1cc(OC)c(OC)c(OC)c1` (stereo unspecified) [(1-Methyl-butyl)-carbamic acid 1,4-bis-(3,4,5-trimethoxy-benzoyl)-piperazin-2-ylmethyl ester] the figure was 100 nM.
Turning to `CCN(CC)C(=O)OCC1CN(C(=O)c2cc(OC)c(OC)c(OC)c2)CCN1C(=O)c1cc(OC)c(OC)c(OC)c1` (stereo unspecified) [Diethyl-carbamic acid 1,4-bis-(3,4,5-trimethoxy-benzoyl)-piperazin-2-ylmethyl ester], the IC50 in experiment [1] stood at 25800 nM.
Compound `COc1cc(C(=O)N2CCN(C(=O)c3cc(OC)c(OC)c(OC)c3)C(COC(=O)NCCC(C)C)C2)cc(OC)c1OC` (stereo unspecified) [(3-Methyl-butyl)-carbamic acid 1,4-bis-(3,4,5-trimethoxy-benzoyl)-piperazin-2-ylmethyl ester] registered a concentration for half-maximal inhibition (IC50) in experiment [1] of 140 nM.
In experiment [1], `COc1cc(C(=O)N2CCN(C(=O)c3cc(OC)c(OC)c(OC)c3)C(COC(=O)COc3ccc(Cl)cc3)C2)cc(OC)c1OC` (stereo unspecified) [(4-Chloro-phenoxy)-acetic acid 1,4-bis-(3,4,5-trimethoxy-benzoyl)-piperazin-2-ylmethyl ester] returned a 50% inhibitory concentration (IC50) of 5000 nM. Compared with the last compound, the IC50 is about 36-fold higher.
The compound `COc1cc(C(=O)N2CCN(C(=O)c3cc(OC)c(OC)c(OC)c3)C(COC(=O)NC(C)C(C)C)C2)cc(OC)c1OC` (stereo unspecified) [(1,2-Dimethyl-propyl)-carbamic acid 1,4-bis-(3,4,5-trimethoxy-benzoyl)-piperazin-2-ylmethyl ester] returned an IC50 in experiment [1] of 80 nM. For the same compound, a half-maximal response in experiment [2] (EC50) required 70 nM.
In turn, `COc1cc(C(=O)N2CCN(C(=O)c3cc(OC)c(OC)c(OC)c3)C(COC(C)=O)C2)cc(OC)c1OC` (stereo unspecified) [Acetic acid 1,4-bis-(3,4,5-trimethoxy-benzoyl)-piperazin-2-ylmethyl ester] came in with an IC50 in experiment [1] of 430 nM. The same compound displayed a 50% effective concentration (EC50) in experiment [2] of 400 nM.
In experiment [1], `CCC(CC)NC(=O)OCC1CN(C(=O)c2cc(OC)c(OC)c(OC)c2)CCN1C(=O)c1cc(OC)c(OC)c(OC)c1` (stereo unspecified) [(1-Ethyl-propyl)-carbamic acid 1,4-bis-(3,4,5-trimethoxy-benzoyl)-piperazin-2-ylmethyl ester] displayed an IC50 of 130 nM.
Same read-out and setting: with `COc1cc(C(=O)N2CCN(C(=O)c3cc(OC)c(OC)c(OC)c3)C(COC(=O)CC(C)(C)C)C2)cc(OC)c1OC` (stereo unspecified) [3,3-Dimethyl-butyric acid 1,4-bis-(3,4,5-trimethoxy-benzoyl)-piperazin-2-ylmethyl ester] the figure was 120 nM; with `CCCCCN(CCCCC)C(=O)OCC1CN(C(=O)c2cc(OC)c(OC)c(OC)c2)CCN1C(=O)c1cc(OC)c(OC)c(OC)c1` (stereo unspecified) [Dipentyl-carbamic acid 1,4-bis-(3,4,5-trimethoxy-benzoyl)-piperazin-2-ylmethyl ester], 11400 nM.
As to `COc1cc(N2CCN(c3cc(OC)c(OC)c(OC)c3)CC2)cc(OC)c1OC` [1,4-Bis-(3,4,5-trimethoxy-phenyl)-piperazine], the IC50 in experiment [1] is 12500 nM.
